The values below come from ChEMBL document CHEMBL5550141, “Photo-regulated PROTACs: A novel tool for temporal control of targeted protein degradation” (Bioorg Med Chem Lett, 2024).

Data set [1] can be described thus: Stability of the compound assessed as UV-light induced degradation measured after 30 mins by HPLC analysis. The settings on record: 0.5 h. In kind it is physicochemical.
The target in data set [2] is T1, Protein cereblon/Bromodomain-containing protein 4 (Homo sapiens) (UniProt O60885+Q96SW2). The data set can be described thus: PROTAC activity at CRBN/BRD4 in human MCF7 cells assessed as induction of BRD4 degradation at 1 uM measured after 6 to 24 hrs by Western blot analysis relative to control. The data set is classed as cell-based. The settings on record: time 6-24 hrs. (In general: A western blot detects proteins with antibodies after separation by electrophoresis.)

Data set [3] addresses T1, Protein cereblon/Bromodomain-containing protein 4 (Homo sapiens). The data set can be described thus: PROTAC activity at CRBN/BRD4 in human MCF7 cells assessed as induction of BRD4 degradation at 1 uM measured after 24 hrs by Western blot analysis relative to control. In kind it is cell-based.
The target is the same in data set [4]. The data set can be described thus: PROTAC activity at CRBN/BRD4 in human MCF7 cells assessed as induction of BRD4 degradation at 1 uM measured after 18 hrs in presence of […] by Western blot analysis. The data set is classed as cell-based.
Data set [5] shares this target. The data set can be described thus: PROTAC activity at CRBN/BRD4 in human MCF7 cells assessed as induction of BRD4 degradation measured after 6 to 24 hrs by Western blot analysis. In kind it is cell-based. The conditions noted are these: dose <= 1.0 µM, time 6-24 hrs.
Data set [6] has the same target. The data set can be described thus: PROTAC activity at CRBN/BRD4 in human MCF7 cells assessed as induction of BRD4 degradation at 1 uM measured after 18 hrs in presence of MG132 by Western blot analysis. The data set is classed as cell-based.
The target is the same in data set [7]. The data set can be described thus: PROTAC activity at CRBN/BRD4 in human MCF7 cells assessed as induction of BRD4 degradation at 1 uM measured after 24 hrs by Western blot analysis. The data set is classed as cell-based.
For data set [8] the target is unchanged. The data set can be described thus: PROTAC activity at CRBN/BRD4 in human MCF7 cells assessed as induction of BRD4 degradation at 1 uM measured after 18 hrs in presence of MLN4924 by Western blot analysis. The data set is classed as cell-based.

SMILES strings stand for the structures. Calls of active or inactive are those of the source. No cut-off for these calls is given here.

T1 sequence (Q96SW2 whole entry, looked up, other chains not shown): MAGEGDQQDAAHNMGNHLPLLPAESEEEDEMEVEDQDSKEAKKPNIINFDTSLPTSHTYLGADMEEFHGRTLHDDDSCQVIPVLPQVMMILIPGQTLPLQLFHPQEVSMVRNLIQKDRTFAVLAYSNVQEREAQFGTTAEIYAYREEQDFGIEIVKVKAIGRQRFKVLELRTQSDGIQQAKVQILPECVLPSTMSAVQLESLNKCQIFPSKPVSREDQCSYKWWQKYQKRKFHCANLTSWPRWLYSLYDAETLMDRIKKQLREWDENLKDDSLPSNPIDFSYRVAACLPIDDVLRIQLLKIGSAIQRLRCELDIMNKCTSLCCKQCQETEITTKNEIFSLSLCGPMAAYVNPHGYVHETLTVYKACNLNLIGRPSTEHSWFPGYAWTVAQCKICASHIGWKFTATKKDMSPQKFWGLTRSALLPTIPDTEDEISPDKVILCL

As for `Cc1sc2c(c1C)C(c1ccc(Cl)cc1)=N[C@@H](CC(=O)NCCCNC(=O)OCc1cc(OCCCNc3cccc4c3C(=O)N(C3CCC(=O)NC3=O)C4=O)ccc1[N+](=O)[O-])c1nnc(C)n1-2` (some centres undefined), the Stability entry in data set [1] is recorded as “Unstable”. Also, the Activity is more than 80% in data set [2], more than 80% in data set [3] and “Dose-Dependent Effect” in data set [5]. For the same compound, the result in data set [4], in data set [6] and in data set [8] was inactive. For the same compound, the outcome in data set [7] was Active.

For the compound `Cc1sc2c(c1C)C(c1ccc(Cl)cc1)=N[C@@H](CC(=O)NCCCNC(=O)OCc1cc(OCCCNC(=O)CNc3cccc4c3C(=O)N(C3CCC(=O)NC3=O)C4=O)ccc1[N+](=O)[O-])c1nnc(C)n1-2` (some centres undefined), the Activity in data set [3] is more than 80%. The outcome in data set [4], in data set [6] and in data set [8] was inactive. Besides, the outcome in data set [7] was Active.

Consider `Cc1sc2c(c1C)C(c1ccc(Cl)cc1)=N[C@@H](CC(=O)NCCNC(=O)OCc1cc(OCCCNc3cccc4c3C(=O)N(C3CCC(=O)NC3=O)C4=O)ccc1[N+](=O)[O-])c1nnc(C)n1-2` (some centres undefined), for which the Activity in data set [3] is more than 80%; in data set [5], “Dose-Dependent Effect”. The outcome in data set [4], in data set [6] and in data set [8] was inactive. Also, the outcome in data set [7] was Active.
